The source of these data is US20120010158A1, “TUMOR NECROSIS FACTOR INHIBITING PEPTIDES AND USES THEREOF” (PANACEA BIOTEC LTD., priority 2008, published 2012).

Data set [1] deals with adjuvant induced arthritis. The experiment in a line: Rat model of adjuvant induced arthritis. It is filed as in vivo, Wistar rats. Conditions: 2.5 mg/kg once every day for 6 days, then 3 doses every alternate day; for clinical score: p<0.05, score 0-4, FIG. 9b; for paw thickness: vs PBS treated arthritic rats, FIG. 9a. How it is done:
In vivo efficacy of peptide with sequence ID-6 was evaluated in a rat model of “adjuvant” induced arthritis. This model is widely used for developing and testing anti-inflammatory drugs. Adjuvant arthritis (AA) in rats mimics features of inflammatory arthritis in humans (Pearson et al, 1956, Proc. Soc. Exp. Biol. Med. 112:95-10). AA was induced in male Wistar rats by intradermal immunization with 150 μg of complete freunds adjuvant followed by a booster immunization at day 7 with incomplete freunds adjuvant. Arthritis was evaluated in animals by clinical scoring and measurement of paw and joint thickness using digital vernier calipers. The clinical score was assigned according to following criteria: 0=no erythema or swelling 1=slight erythema or swelling of one of toes or fingers 2=erythema and swelling of more than one toe or finger 3=erythema and swelling of the ankle or wrist 4=complete erythema and swelling of toes or fingers and ankle or wrist and inability to bend the ankle or wrist. Arthritic rats were administered with peptide Sequence ID-6 at a dose of 2.5 mg/kg, once every day for 6 days in the first week followed by 3 doses every alternate day in the second week. Another group of arthritic animals received Etanercept (Et) in similar manner.

The test system of data set [2] is collagen induced arthritis. The experiment in a line: Murine model of collagen induced arthritis. It is filed as in vivo, C57BL/6 mice. Conditions: for anticollagen IgG1/IgG2a ratio after therapy: vs PBS treated arthritic animals, FIG. 8b. How it is done:
Male C57BL/6 mice obtained from animal house at Lalru, Panacea Biotec were used to develop a murine model of rheumatoid arthritis. Mice were intradermally immunized with 150 μg of chicken type-II collagen (Sigma) emulsified in complete Freunds adjuvant (CFA) (Sigma). On day 17 after primary immunization, a booster immunization with 100 μg of chick type II collagen in incomplete Freunds adjuvant was administered to animals (Ethan M Shevach, Curr. Prot. Immunol. 2002: 15.0.1-15.0.6; Inglis J et al, 2008 Nature Protocols, 4:612-618). Increase in paw thickness as compared to controls (healthy, male C57BL/6 mice) and presence of anti-collagen IgG antibodies were the parameters to assess development of arthritis. Paw thickness in animals was measured using digital Vernier Calipers and anticollagen antibodies were measured in the mouse serum on day 35 after immunization.
Chicken type-II collagen (sigma) was coated onto ELISA plates at 1 μg/ml in PBS and incubated overnight at 4° C. After three washes in PBS-0.05% Tween 20 (PBS-T), serum from collagen, vehicle (CFA) and PBS (control) injected mice was added to separate wells at dilution of 1:100. Plate was incubated at room temperature for 2 h. After 5 washes in PBS-T rabbit antimouse IgG HRP (Bethyl Laboratories) was added to wells at 1:10000 dilutions and incubated at room temperature for 45 min. After washing the plate in PBS-T, OPD (ortho-phenyl diamine) as substrate was added and colour development observed. Colour development was stopped by 2N HCl. Absorbance was recorded at 490 nm (Ethan M Shevach, Cum Prot. Immunol. 2002: 15.0.1-15.0.6).
Determination of optimum dose and schedule of peptide with Sequence ID-6 was performed in a murine model of collagen induced arthritis (as prepared above). Arthritic mice were randomized according to paw thickness and divided into separate groups of 4-5 animals for intravenous administration of peptide sequence ID-6.
Efficacy of peptide with sequence ID-6 and sequence ID-2 was compared with Etanercept (Marketed and approved TNF-alpha inhibiting agent with the brand name “Enbrel”) using a murine model of collagen induced arthritis (As prepared and described above). Peptides of Sequence ID-6, Sequence ID-2 and Etanercept were intravenously administered to the arthritic mice at a dose of 5 mg/kg three times in first week followed by once every week for three weeks.
Development of disease in collagen induced arthritis is accompanied by an increase in Th1 or proinflammatory response. IgG1/IgG2a levels were measured to determine that whether treatment with the peptides of the present invention and Etanercept improved clinical disease in murine model by decreasing Th1 response. Lower IgG1/IgG2a ratio would indicate down regulation of Th1 or proinflammatory response.

Data set [3] concerns the target T1, TNF-alpha (Homo sapiens, UniProt P01375).
Procedure: (§2) The peptides of the present invention were analyzed for inhibition of TNF-alpha induced cytotoxicity employing murine fibroblast cell line, L929. Addition of TNF-alpha to L929 cells (ATCC) induces cytotoxicity, which can be estimated by staining of viable cells with vital dyes like MTT (3-(4,5-Dimethylthiazol-2-yl)-2,5-diphenyltetrazolium bromide, a tetrazole) or crystal violet followed by extraction of dyes with methanol. […] The assay was performed as follows:
(§3) L929 cells (maintained in Dulbecco's modified Eagle's medium supplemented with 10% FCS) were seeded at a density of 2×10^5 cells/ml in a microtitre plates, and incubated with actinomycin D (ACT-D) at concentration of 1 μg/ml for 2 h at 37° C. and 5% CO2. TNF-α (100 pg/ml) preincubated with 75 μM of peptide solution at 37° C. was added to L929 cells and incubated overnight at 37° C., 5% CO2. […]
(§4) The live cells of test and positive control plates were then stained with 100 μl/well of 0.05% crystal violet and incubated at room temperature for 15 min., washed with PBS and kept for overnight drying at room temperature. Crystal violet was extracted from the cells by 100 μl per well of methanol and absorbance of extracted crystal violet dye was estimated at 595 nm. Percent inhibition in cytotoxicity was calculated by the following formula: […]
Another data set addresses T2, TNF-R1 (Homo sapiens, UniProt P19438).
T2 construct: endogenous in cells; host or cells: U937
T2 sequence (P19438 30-455): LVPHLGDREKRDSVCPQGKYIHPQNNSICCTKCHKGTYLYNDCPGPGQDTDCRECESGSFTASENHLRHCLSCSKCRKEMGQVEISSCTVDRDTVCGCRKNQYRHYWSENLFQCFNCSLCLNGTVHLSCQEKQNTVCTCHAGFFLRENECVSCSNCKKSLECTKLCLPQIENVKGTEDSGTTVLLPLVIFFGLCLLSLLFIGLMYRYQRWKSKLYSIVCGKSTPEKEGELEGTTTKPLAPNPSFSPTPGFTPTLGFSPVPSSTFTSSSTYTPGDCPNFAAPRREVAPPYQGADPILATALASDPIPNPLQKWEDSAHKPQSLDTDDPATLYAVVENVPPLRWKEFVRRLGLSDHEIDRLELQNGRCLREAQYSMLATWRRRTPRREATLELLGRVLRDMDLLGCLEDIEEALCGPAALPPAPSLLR
In words: Binding of peptide to TNF-R1 on U937 cells by flow cytometry. Conditions: untreated 83%. The source says:
(§1) Flow cytometry assay technique was used to investigate binding of peptides to TNF-α or TNF-R1 employing U937 cells (a TNF-receptor expressing human leukemia cell line). Binding of peptide to TNF-α prevents TNF-α from interacting with TNF-R1 which can be analyzed by flow cytometry. Similarly, direct binding of peptide with TNF-R1 reduces percent TNF-R1 positive cells which can be analyzed by flow cytometry.
U937 cells were used to quantify the binding of peptides to TNF-R 1. TNF-alpha upon addition to U937 cells binds to its cognate receptor TNF-R1 on U937 cells leading to a reduction in percent cells positive for TNF-R1. TNF-alpha inhibiting peptides according to present invention bind to TNF-R1 and reduce the TNF-R1 positive cells after incubation of U937 cells with said peptides.
Peptide of Sequence ID-6 was analyzed for binding of peptide to TNF-R1 on U937 cells using flow cytometry. […] After two washes in binding buffer, the cells were analyzed using FACS Calibur flow cytometer (Becton Dickinson). The gates were set on the live cell population, and the degree of binding to TNF-R1 was calculated on the basis of percent cells positive for TNF-RI expression.
(In general: In flow cytometry, cells or beads pass a laser one at a time.)

Data set [4] addresses T1, TNF-alpha. In words: Inhibition of TNF-α binding to its receptor TNF-R1 on U937 cells (flow cytometry). To be noted: U937 cells with complex of peptide and TNF-alpha (5 ng); untreated 78±1%, TNF-alpha alone 32±10%. Also noted: host or cells: U937 cells carry the partner receptor endogenously.
Source text: as §1
TNF-alpha binds to its cognate receptor TNF-R1 on U937 cells (ATCC) leading to a reduction in percent cells positive for TNF-R1. TNF-alpha binding peptides bind to TNF-alpha and prevent the interaction of TNF-alpha with TNF-R1. The percent cells positive for TNF-R1 can be quantified by staining with fluorochrome conjugated anti-TNF-R1 antibody.
Peptides of Sequence ID-2 and Sequence ID-6 were analyzed for inhibition of TNF-alpha binding to its receptor TNF-R1 on U937 cells. Inhibition of TNF-alpha binding to TNF-RI on U937 cells by peptides with sequence ID-2 or sequence ID-6 was estimated, using fluorescent activated cell sorter (FACS, FACSCALIBUR, Becton Dickinson, USA). […]

The target of data set [5] is T1, TNF-alpha. In words: Inhibition of TNF-alpha mediated cytotoxicity of L-929 cells (crystal violet).
Procedure: as §2, §3, §4
Setting [6] is: 5 mg/kg i.v. three times in first week then once every week for three weeks, pre vs post treatment, Example 5(d), FIG. 8a.
[7] abbreviates: 5 mg/kg i.v. three times in first week then once every week for three weeks.

Residues, ends and D or L forms follow the SMILES beside them.

T1 sequence (P01375 77-233 limits assumed, species assumed): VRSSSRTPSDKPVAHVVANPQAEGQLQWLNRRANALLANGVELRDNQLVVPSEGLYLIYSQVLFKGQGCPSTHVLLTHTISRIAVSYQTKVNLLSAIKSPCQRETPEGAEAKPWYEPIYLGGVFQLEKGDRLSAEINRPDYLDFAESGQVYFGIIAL

Take `NC(=O)C[C@H](NC(=O)[C@@H](N)CO)C(=O)N[C@@H](Cc1ccc(O)cc1)C(=O)O` [Sequence ID-6, Ser--Asn--Tyr] (H-Ser-Asn-Tyr-OH; N-terminus assumed): the clinical score result in data set [1] is listed as “significant lowering of clinical score”. Besides, the paw thickness entry is recorded as “Lowering of paw thickness” in data set [1]; “significant lowering of paw thickness” in data set [2] (setting [6]); “significant reduction of paw thickness” in data set [2] (5 mg/kg i.v. thrice weekly followed by once every week for 3 wks, Example 5(c), FIG. 7); “insignificant lowering of paw thickness” in data set [2] (7.5 mg/kg i.v. once every week for 4 wks, Example 5(c), FIG. 7). Also, in data set [2] (setting [7]), the “anticollagen IgG1/IgG2a ratio after therapy” value is given as “lower ratio of IgG1/IgG2a”. For the same molecule, the “ability to inhibit TNF-alpha induced cytotoxicity compared with Etanercept” value on TNF-alpha [3] is “comparable ability”. The results for the “percent cells positive for TNF-R1” value on TNF-R1 (U937 cells incubated with peptide 250 μM) and on TNF-alpha [4] were 32% and 57±8%, respectively.

Regarding Etanercept [reference compound], in data set [1], the clinical score result is reported as “significant lowering of clinical score” and the paw thickness result is on record as “Lowering of paw thickness”. Also, the paw thickness entry in data set [2] (setting [6]) is on record as “significant lowering of paw thickness”. For the same molecule, the “anticollagen IgG1/IgG2a ratio after therapy” value in data set [2] (setting [7]) is listed as “lower ratio of IgG1/IgG2a”.

Take TNF-alpha: the “percent cells positive for TNF-R1” value on TNF-R1 (U937 cells incubated with recombinant TNF-alpha 10 ng) was found to be 31.6%.

Take `CC(C)C[C@@H]1NC(=O)[C@H](Cc2ccc(O)cc2)NC(=O)[C@H](CCC(N)=O)NC(=O)[C@H](CO)NC(=O)[C@H](Cc2c[nH]c3ccccc23)NC(=O)[C@@H](NC(=O)[C@@H](N)Cc2ccc(O)cc2)CSSC[C@@H](C(=O)N[C@@H](Cc2ccc(O)cc2)C(=O)O)NC1=O` [Cyclic WSQYL, cy Trp-Ser-Gln-Tyr-Leu CY]: the inhibition at 75 µM at TNF-alpha [5] amounted to 60 ± 10%.

As a reminder, the inhibition is the share of the control response that was lost under treatment.
